Assay results reported in PubChem BioAssay (NCI).
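1) Cells in 96-well plates. 2) Compound, 48 h, 5 concentrations. 3) Linear interpolation between surrounding doses. 4) Unreached endpoint = highest concentration. The concentration for full growth arrest is given as TGI.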

Key:
Experiment in all cases: NCI anticancer screen, dose series, 48 h
TK-10 renal = system: TK-10 renal
NCI-H460 lung = system: NCI-H460 lung
SR leukemia = system: SR leukemia
HCT-116 colon = system: HCT-116 colon
UO-31 renal = system: UO-31 renal
SNB-19 CNS = system: SNB-19 CNS
HCT-15 colon = system: HCT-15 colon
HS 578T breast = system: HS 578T breast
MDA-N = system: MDA-N
NCI-H522 lung = system: NCI-H522 lung
DU-145 prostate = system: DU-145 prostate
SK-MEL-2 melanoma = system: SK-MEL-2 melanoma
MCF7 breast = system: MCF7 breast
OVCAR-8 ovarian = system: OVCAR-8 ovarian
M14 melanoma = system: M14 melanoma
KM12 colon = system: KM12 colon
A498 renal = system: A498 renal
PC-3 prostate = system: PC-3 prostate
OVCAR-5 ovarian = system: OVCAR-5 ovarian
MDA-MB-231 breast = system: MDA-MB-231 breast
UACC-62 melanoma = system: UACC-62 melanoma
SNB-75 CNS = system: SNB-75 CNS
SK-MEL-28 melanoma = system: SK-MEL-28 melanoma
SF-268 CNS = system: SF-268 CNS
A549 NSCLC = system: A549 NSCLC
786-0 renal = system: 786-0 renal
U251 CNS = system: U251 CNS
NCI-H226 lung = system: NCI-H226 lung
CAKI-1 renal = system: CAKI-1 renal
MALME-3M melanoma = system: MALME-3M melanoma
MDA-MB-435 = system: MDA-MB-435
RPMI-8226 leukemia = system: RPMI-8226 leukemia
LOX IMVI melanoma = system: LOX IMVI melanoma
RXF 393 renal = system: RXF 393 renal
HOP-92 NSCLC = system: HOP-92 NSCLC
ACHN renal = system: ACHN renal
K-562 leukemia = system: K-562 leukemia
NCI/ADR-RES ovarian = system: NCI/ADR-RES ovarian
T-47D breast = system: T-47D breast
OVCAR-4 ovarian = system: OVCAR-4 ovarian
OVCAR-3 ovarian = system: OVCAR-3 ovarian
SK-MEL-5 melanoma = system: SK-MEL-5 melanoma
EKVX NSCLC = system: EKVX NSCLC
SF-295 CNS = system: SF-295 CNS
SN12C renal = system: SN12C renal
COLO 205 colon = system: COLO 205 colon
IGROV1 ovarian = system: IGROV1 ovarian
HT29 colon = system: HT29 colon
HOP-62 NSCLC = system: HOP-62 NSCLC
MOLT-4 leukemia = system: MOLT-4 leukemia
UACC-257 melanoma = system: UACC-257 melanoma
BT-549 breast = system: BT-549 breast
SK-OV-3 ovarian = system: SK-OV-3 ovarian
HCC-2998 colon = system: HCC-2998 colon
SW-620 colon = system: SW-620 colon
NCI-H23 lung = system: NCI-H23 lung
SF-539 CNS = system: SF-539 CNS
HL-60(TB) leukemia = system: HL-60(TB) leukemia

Compound `NCCCN1CCN(c2ccccc2)CC1` has a TGI (TK-10 renal) of over 100 µM, a TGI (NCI-H460 lung) of over 100 µM and a TGI (SR leukemia) of over 100 µM. For the same compound, the TGI (HCT-116 colon) was over 100 µM, the TGI (UO-31 renal) was over 100 µM and the TGI (SNB-19 CNS) was over 100 µM. The TGI (HCT-15 colon) was over 100 µM, the TGI (HS 578T breast) was over 100 µM and the TGI (MDA-N) was over 100 µM. The TGI (NCI-H522 lung) was over 100 µM, the TGI (DU-145 prostate) was over 100 µM and the TGI (SK-MEL-2 melanoma) was over 100 µM. It also gave a TGI (MCF7 breast) of over 100 µM, a TGI (OVCAR-8 ovarian) of over 100 µM and a TGI (M14 melanoma) of over 100 µM. For the same compound, the TGI (KM12 colon) was over 100 µM, the TGI (A498 renal) was over 100 µM and the TGI (PC-3 prostate) was over 100 µM. It also gave a TGI (OVCAR-5 ovarian) of over 100 µM, a TGI (MDA-MB-231 breast) of over 100 µM and a TGI (UACC-62 melanoma) of over 100 µM. It also gave a TGI (SNB-75 CNS) of over 100 µM, a TGI (SK-MEL-28 melanoma) of over 100 µM and a TGI (SF-268 CNS) of over 100 µM. The TGI (A549 NSCLC) was over 100 µM, the TGI (786-0 renal) was over 100 µM and the TGI (U251 CNS) was over 100 µM. The TGI (NCI-H226 lung) was over 100 µM, the TGI (CAKI-1 renal) was over 100 µM and the TGI (MALME-3M melanoma) was over 100 µM. For the same compound, the TGI (MDA-MB-435) was over 100 µM, the TGI (RPMI-8226 leukemia) was over 100 µM and the TGI (LOX IMVI melanoma) was over 100 µM. It also gave a TGI (RXF 393 renal) of over 100 µM, a TGI (HOP-92 NSCLC) of over 100 µM and a TGI (ACHN renal) of over 100 µM. The TGI (K-562 leukemia) was over 100 µM, the TGI (NCI/ADR-RES ovarian) was over 100 µM and the TGI (T-47D breast) was over 100 µM. For the same compound, the TGI (OVCAR-4 ovarian) was over 100 µM, the TGI (OVCAR-3 ovarian) was 87.7 µM and the TGI (SK-MEL-5 melanoma) was over 100 µM. For the same compound, the TGI (EKVX NSCLC) was over 100 µM, the TGI (SF-295 CNS) was over 100 µM and the TGI (SN12C renal) was over 100 µM. It also gave a TGI (COLO 205 colon) of over 100 µM, a TGI (IGROV1 ovarian) of over 100 µM and a TGI (HT29 colon) of over 100 µM. For the same compound, the TGI (HOP-62 NSCLC) was over 100 µM, the TGI (MOLT-4 leukemia) was over 100 µM and the TGI (UACC-257 melanoma) was over 100 µM. It also gave a TGI (BT-549 breast) of over 100 µM.
`O=C(Nc1ccc2ncccc2c1)c1cc2c(cc1Cl)Sc1nccn1S2(=O)=O` showed a TGI (TK-10 renal) of 69.4 µM, a TGI (NCI-H460 lung) of 30.6 µM and a TGI (SR leukemia) of 45.2 µM. For the same compound, the TGI (HCT-116 colon) was 25.4 µM, the TGI (UO-31 renal) was 39.8 µM and the TGI (SNB-19 CNS) was 34.6 µM. For the same compound, the TGI (HCT-15 colon) was 24.1 µM, the TGI (HS 578T breast) was over 100 µM and the TGI (MDA-N) was 18.3 µM. The TGI (NCI-H522 lung) was 24.5 µM, the TGI (DU-145 prostate) was 31 µM and the TGI (SK-MEL-2 melanoma) was 33.3 µM. For the same compound, the TGI (MCF7 breast) was 35.2 µM, the TGI (OVCAR-8 ovarian) was 43.7 µM and the TGI (M14 melanoma) was 29.8 µM. The TGI (SK-OV-3 ovarian) was 62.5 µM, the TGI (KM12 colon) was 21.7 µM and the TGI (HCC-2998 colon) was 27.8 µM. For the same compound, the TGI (PC-3 prostate) was over 100 µM, the TGI (OVCAR-5 ovarian) was 39.6 µM and the TGI (MDA-MB-231 breast) was 45.1 µM. It also gave a TGI (SW-620 colon) of 34.1 µM, a TGI (UACC-62 melanoma) of 32.7 µM and a TGI (SNB-75 CNS) of 30.7 µM. The TGI (SK-MEL-28 melanoma) was 42 µM, the TGI (SF-268 CNS) was 48.4 µM and the TGI (A549 NSCLC) was 40.6 µM. For the same compound, the TGI (786-0 renal) was 27.9 µM, the TGI (U251 CNS) was 26.4 µM and the TGI (NCI-H226 lung) was 35.4 µM. It also gave a TGI (CAKI-1 renal) of 79.5 µM, a TGI (MALME-3M melanoma) of 35.1 µM and a TGI (MDA-MB-435) of 17.1 µM. It also gave a TGI (RPMI-8226 leukemia) of 41 µM, a TGI (LOX IMVI melanoma) of 34.2 µM and a TGI (RXF 393 renal) of 33.6 µM. It also gave a TGI (HOP-92 NSCLC) of 76.7 µM, a TGI (ACHN renal) of 87.6 µM and a TGI (K-562 leukemia) of 47 µM. It also gave a TGI (NCI/ADR-RES ovarian) of 47.6 µM, a TGI (NCI-H23 lung) of 32.5 µM and a TGI (SF-539 CNS) of 57.4 µM. The TGI (T-47D breast) was 45.4 µM, the TGI (OVCAR-4 ovarian) was 73 µM and the TGI (OVCAR-3 ovarian) was 47.6 µM. For the same compound, the TGI (SK-MEL-5 melanoma) was 28.8 µM, the TGI (EKVX NSCLC) was 39.1 µM and the TGI (HL-60(TB) leukemia) was 26.6 µM. The TGI (SF-295 CNS) was 42 µM, the TGI (SN12C renal) was 33.3 µM and the TGI (COLO 205 colon) was 37.3 µM. It also gave a TGI (IGROV1 ovarian) of 29.3 µM, a TGI (HT29 colon) of 31.3 µM and a TGI (HOP-62 NSCLC) of 39.8 µM. The TGI (MOLT-4 leukemia) was 45.5 µM, the TGI (UACC-257 melanoma) was 47.8 µM and the TGI (BT-549 breast) was 41.2 µM.
